Here are results for 5 molecules from patent publication US9889081B2, “Aldehyde dehydrogenase inhibitors as novel depigmenting agents” (The Regents of the University of California, priority 2008, dated 2018).

Structures are written as SMILES.

One data set relates to MNT-1 cells. The data set is described as follows: Drug treatment, pigmentation in MNT-1 cells. Conditions: doses equivalent to those required for inhibition of Aldh activity in culture. In kind it is cell-based, human. An excerpt:
For further analyses, we focused on those novel pigmentation genes that impacted tyrosinase expression in all three genetic backgrounds. Among these were two isoforms of aldehyde dehydrogenase, Aldh1 and Aldh9, well characterized enzymes that regulate ethanol detoxification (Edenberg 2007). A number of chemical inhibitors of these enzymes have been identified (DeMaster et al. 1998), and several of these agents are clinically utilized to induce alcohol intolerance during detoxification interventions; presenting an opportunity for pharmacological validation of the contribution of Aldh activity to melanocyte pigmentation.
1×10^4 MNT-1 cells were plated in a 96 well microtiter plate. 24 hours after plating, cells were incubated with either vehicle, hydroquinone Angeli's salt, or cyanamide. 48 hours after drug treatment, cell lysates were prepared and subjected to immunoblotting with a tyrosinase and ERK antibody. Similar protocols were utilized in primary melanocytes. Melanocytes were plated in 96 well microtiter plate in the presence of drug or vehicle. 24 hours after drug treatment, melanocytes were treated with UV. Cell lysates were prepared 24 hours after UV treatment and subjected to immunoblotting. […] Cells were incubated for an additional 7 days, with one media change on day 4, prior to collection of absorbance and viability values. […]

The test system of data set [1] is tyrosinase. The data set is described as follows: Drug treatment, tyrosinase immunoblot in MNT-1 cells. In kind it is cell-based, human. Conditions: 5 uM, doses equivalent to those required for inhibition of Aldh activity in culture. The protocol:
(§1) FIG. 2A-G. Novel, pharmaceutically-tractable melanogenesis gene networks converge on tyrosinase expression. a, 4 days post transfection with the indicated siRNAs, MNT-1 whole cell lysates were prepared and analyzed by immunoblot for the indicated proteins. A non-targeting siRNA was used as a transfection control (Control). ERK1/2 is shown as a loading control. b, Those siRNAs that inhibited tryosinase accumulation were examined for consequences on Tyrosinase and MITF gene expression by quantitative rt-PCR. c, The indicated siRNAs, targeting novel pigmentation genes identified in the MNT-1 screen, were tested for consequences on tyrosinase protein accumulation in darkly pigmented primary human melanocyte cultures 6 days post transfection as in a. d, The indicated siRNAs, targeting novel pigmentation genes identified in the MNT-1 screen, were tested for consequences on tyrosinase protein accumulation in moderately pigmented primary human melanocyte cultures 6 days post transfection as in a. e, Pharmacological inhibition of Aldh activity impacts tyrosinase protein accumulation. […] Tyrosinase and ERK1/2 levels were assessed by immunoblot. […]
(§2) 1×10^4 MNT-1 cells were plated in a 96 well microtiter plate. […] Cells were incubated for an additional 7 days, with one media change on day 4, prior to collection of absorbance and viability values. […]
(In general: Immunoblotting shows a protein as a band on a membrane.)

The subject of data set [2] is tyrosinase. The data set is described as follows: UV-induced tyrosinase expression in primary melanocytes, immunoblot. The format is cell-based, human. Conditions: cyanamide 100 uM, UV-B 24 hours post treatment. The protocol:
as §1, §2

Another data set concerns melanoma cells. Conditions: cited from earlier work.
The subject of data set [3] is primary human melanocytes. Conditions: Hall and Orlow 2005; cited from earlier work.
For data set [4], the system named is tyrosinase. The data set can be described thus: Bafilomycin rescue of tyrosinase accumulation after siRNA depletion, immunoblot. In kind it is cell-based, human. Conditions: MNT-1 cells, 25 nM bafilomycin. The procedure: FIG. 2A-G. Novel, pharmaceutically-tractable melanogenesis gene networks converge on tyrosinase expression. a, 4 days post transfection with the indicated siRNAs, MNT-1 whole cell lysates were prepared and analyzed by immunoblot for the indicated proteins. A non-targeting siRNA was used as a transfection control (Control). ERK1/2 is shown as a loading control. b, Those siRNAs that inhibited tryosinase accumulation were examined for consequences on Tyrosinase and MITF gene expression by quantitative rt-PCR. c, The indicated siRNAs, targeting novel pigmentation genes identified in the MNT-1 screen, were tested for consequences on tyrosinase protein accumulation in darkly pigmented primary human melanocyte cultures 6 days post transfection as in a. d, The indicated siRNAs, targeting novel pigmentation genes identified in the MNT-1 screen, were tested for consequences on tyrosinase protein accumulation in moderately pigmented primary human melanocyte cultures 6 days post transfection as in a. e, Pharmacological inhibition of Aldh activity impacts tyrosinase protein accumulation. MNT-1 cells (left panel) and primary melanomcyte cultures (right panels) were exposed to 5 uM Aldh inhibitors (cyanamide or Angeli's salt) or the tyrosinase inhibitor hydroxyquinone(Kim and Uyama 2005) for 72 hours as indicated. 24 hours post treatment, cultures were exposed to UV-B at the doses indicated. Tyrosinase and ERK1/2 levels were assessed by immunoblot. […] Subsequently, cells were lysed in Cell Titer Glo and the luminescence and absorbance values were used to calculate inhibition of pigmentation as in FIG. 1a. g, MNT-1 cells transfected with the indicated siRNAs as in a were incubated in the presence and absence of bafilomycin A2 for 24 hours prior to lyses and analyses of tyrosinase protein accumulation. […]
as §2

Data set [5] concerns primary human melanocytes. The data set can be described thus: Pigment production in darkly pigmented primary human melanocytes, 7 days with drug. In kind it is cell-based. Conditions: seven days. The protocol:
as §1, §2

Where [6] appears, read: 24 hour inhibition of lysosome acidification.

As for `[Na+].[Na+].[O-][N+]([O-])=NO` [Angeli's salt], the pigmentation entry with MNT-1 cells is “inhibited pigmentation”. Further, the tyrosinase protein accumulation entry in the data set with tyrosinase [1] is given as “inhibited”. Further, in the data set with tyrosinase [2], the UV-induced tyrosinase expression result is “impaired UV-induced tyrosinase expression”. Besides, the toxicity result with melanoma cells is recorded as “non-toxic”.

In the case of `CCN(CC)C(=S)SSC(=S)N(CC)CC` [Disulfiram], the toxicity result in the data set on melanoma cells is reported as “toxic to melanoma cells”.

In the case of `NC(=S)Nc1ccccc1` [PTU, phenylthiourea], the “in vitro pigment inhibition” value in data set [3] is recorded as “most potent currently known in vitro pigment inhibitor”.

Turning to `CO/C1=C\C(C)=C\[C@@H](C)[C@@H](O)[C@@H](C)C/C(C)=C/C=C/[C@H](OC)[C@@H]([C@@H](C)[C@@H](O)[C@H](C)[C@@]2(O)C[C@@H](O)[C@H](C)[C@@H](C(C)C)O2)OC1=O` [bafilomycin, bafilomycin A], the “tyrosinase accumulation upon depletion of Msra” value in the data set on tyrosinase [4] is given as “did not restore tyrosinase accumulation”. In the data set on tyrosinase [4] (setting [6]), the “tyrosinase accumulation upon depletion of Rab4a” value was “rescued tyrosinase accumulation” and the “tyrosinase accumulation upon depletion of Zdhhc9” value is listed as “rescued tyrosinase accumulation”.

As for `N#CN` [cyanamide], the pigmentation entry in the data set on MNT-1 cells is recorded as “inhibited pigmentation”. For the same molecule, the tyrosinase protein accumulation result in the data set on tyrosinase [1] is recorded as “inhibited”. Moreover, the UV-induced tyrosinase expression result with tyrosinase [2] is reported as “impaired UV-induced tyrosinase expression”. The melanogenesis result in data set [5] is listed as “impair melanogenesis”. For the same molecule, in the data set with melanoma cells, the toxicity result was “non-toxic”.
